Data taken from PubChem BioAssay AID686936 (Broad Institute, 2013).

System: LuxO (D47E) transcriptional regulator, Vibrio cholerae O395
Experiment: PubChem AID 686936
Settings: stronger effect = lower value
[1] = PK/LDH coupled NADH A340, at 100 µM
[2] = PK/LDH coupled NADH A340, rate, at 1 µM
[3] = PK/LDH coupled NADH A340, rate, at 25 µM

| SMILES | ATPase rate (delta OD340/min) [1] | ATPase rate (delta OD340/min) [2] | ATPase rate (delta OD340/min) [3] |
| --- | --- | --- | --- |
| O=C(Nc1nnc(-c2ccc3c(c2)OCCO3)o1)C1CCCCC1 | 0.0424 | 0.0644 | 0.0279 |
| Cc1ccc2cc3c(NC(=O)c4ccco4)nn(C)c3nc2c1 | 0.00981 | 0.0527 | 0.0182 |
